# Assays:
# Type in all cases: functional, organism-based
# Conditions in all cases: Hippocampus
# [1] = species: Rattus norvegicus; assay: Effect on the uptake amount of [3H]choline in the hippocampal synaptosomes of AF64A-treated rats at 10e-7 M
# [2] = species: Rattus norvegicus; assay: Effect on the uptake amount of [3H]choline in the hippocampal synaptosomes of AF64A-treated rats at 10e-6 M
# [3] = species: Rattus norvegicus; assay: Effect on the uptake amount of [3H]choline in the hippocampal synaptosomes of AF64A-treated rats at 10e-5 M
SMILES,HACU improvement [1] [%],HACU improvement [2] [%],HACU improvement [3] [%]
Cc1oc2nc3c(c(NC(=O)CN4CC(=O)NC4=O)c2c1C)CCCC3,5,12,16
CCCC(=O)Nc1c2c(nc3ccccc13)CCC(=O)C2,14,14,14
Cc1oc2nc3c(c(NC(=O)CN4CCCC4=O)c2c1C)CCCC3,55,72,64
CCCC(=O)Nc1c2c(nc3ccccc13)CCN(C)C2,13,9,19
CCCC(=O)Nc1c2c(nc3ccccc13)C(C)CCC2 (stereo not drawn),10,17,16
CCCC(=O)Nc1c2c(nc3ncccc13)CCCC2,15,10,13
CCCC(=O)Nc1c2c(nc3ccccc13)CCC(c1ccccc1)C2 (stereo not drawn),-1,-7,-6
O=C(CN1CCCC1=O)Nc1c2c(nc3ccccc13)CCCC2,15,17,14
CCCC(=O)Nc1c2c(nc3ccc(F)cc13)CCCC2,2,-5,7
CCCC(=O)Nc1c2c(nc3ccccc13)C1CCN2CC1,7,7,10
CCCC(=O)Nc1c2c(nc3cccc(C)c13)CCCC2,-2,-4,10
CCCC(=O)Nc1c2c(nc3ccccc13)CCN(S(=O)(=O)c1ccccc1)C2,26,10,5
CCCC(=O)Nc1c2c(nc3ccccc13)C=CCC2,14,8,-7
CCCC(=O)Nc1c2c(nc3scc(C)c13)CCCC2,7,3,1
CCCC(=O)Nc1c2c(nc3ccsc13)CCCC2,7,4,15
CNCC(=O)Nc1c2c(nc3oc(C)c(C)c13)CCCC2,14,10,3

SMILES,HACU improvement [1] [%],HACU improvement [2] [%],HACU improvement [3] [%]
CCCC(=O)Nc1c2c(nc3cccc(F)c13)CCCC2,9,2,3
CCCC(=O)Nc1c2c(nc3cc(F)ccc13)CCCC2,-1,3,-15
CCCC(=O)Nc1c2c(nc3ccccc13)CCN(C(=O)c1ccccc1)C2,7,0,-7
CCCC(=O)Nc1c2c(nc3oc(C)c(C)c13)CCCC2,13,20,38
Cc1oc2nc3c(c(NC(=O)Cn4ccnc4)c2c1C)CCCC3,5,4,3
CCCC(=O)Nc1c2c(nc3ccccc13)CCC1(CC1)C2,3,19,12
CCCC(=O)Nc1c2c(nc3ccccc13)CCC(C)C2 (stereo not drawn),-6,-16,6
CCCC(=O)Nc1c2c(nc3ccccc13)C1CCC2CC1,5,-6,-3
CCCC(=O)Nc1c2c(nc3sccc13)CCCC2,1,1,12
CCCC(=O)Nc1c2c(nc3ccccc13)CCC(O)C2 (stereo not drawn),13,16,10
CCCC(=O)Nc1c2c(nc3ccccc13)CCC(C)(C)C2,-11,3,1
CCCC(=O)Nc1c2c(nc3ccccc13)CCN(Cc1ccccc1)C2,10,11,21
CCCC(=O)Nc1c2c(nc3ccccc13)CCCC2,13,24,28
CCCC(=O)Nc1c2c(nc3sc(C)c(C)c13)CCCC2,4,11,20
CCCC(=O)Nc1c2c(nc3oc(C)nc13)CCCC2,4,2,18
